Test results taken from patent publication US20110015135A1, “Antitumoral Treatments” (Pharma Mar S.A., priority 2008, published 2011).

Assays:
A549 cell line = assay: cells; type: cell-based, human; conditions: 72 hours of drug exposure
Description: (§1) a. […] Experiments were performed in triplicate.

DV90 cell line = assay: cells; type: cell-based, human
Description: as §1

HOP62 cell line = assay: cells; type: cell-based, human
Description: as §1

DLD1 cell line = assay: cells
Description: (§2) Experiments were performed in triplicate.

HT29 cell line = assay: cells
Description: as §2

MCF7 cell line = assay: cells
Description: as §2
(§3) a. In the first set of assays, ICso values were determined for each drug after 72 hours of drug exposure in each of the tumor cell lines.

MDA-MB-231 cell line = assay: cells
Description: as §2, §3

MDA-MB-435 cell line = assay: cells
Description: as §2, §3

mouse leukemia (P388) = conditions: reported in EP 610.078; cited from earlier work
[1] = system: non-small cell lung (A549); conditions: reported in EP 610.078; cited from earlier work
colon (HT-29) = conditions: reported in EP 610.078; cited from earlier work
[2] = DLD1, 72 hours of drug exposure
[3] = HT29, 72 hours of drug exposure
[4] = MCF7, 72 hours of drug exposure
[5] = MDA-MB-231, 72 hours of drug exposure
[6] = MDA-MB-435, 72 hours of drug exposure

Compound | IC50 (A549 cell line) [µM] | IC50 (DV90 cell line; 72 hours of drug exposure) [µM] | IC50 (HOP62 cell line; 72 hours of drug exposure) [µM] | IC50 (DLD1 cell line; [2]) [µM] | IC50 (HT29 cell line; [3]) [µM] | IC50 (MCF7 cell line; [4]) [µM] | IC50 (MDA-MB-231 cell line; [5]) [µM] | IC50 (MDA-MB-435 cell line; [6]) [µM] | in vitro activity (mouse leukemia (P388)) | in vitro activity [1] | in vitro activity (colon (HT-29)) | IC50 (A549 cell line; Homo sapiens) [µM] | IC50 (DV90 cell line; Homo sapiens, DV-90, 72 hours of drug exposure) [µM] | IC50 (HOP62 cell line; Homo sapiens, HOP-62, 72 hours of drug exposure) [µM] | IC50 (DLD1 cell line; Homo sapiens, DLD-1, 72 h) [µM] | IC50 (HT29 cell line; Homo sapiens, HT-29, 72 h) [µM] | IC50 (MCF7 cell line; Homo sapiens, MCF7, 72 h) [µM] | IC50 (MDA-MB-231 cell line; Homo sapiens, MDA-MB-231, 72 h) [µM] | IC50 (MDA-MB-435 cell line; Homo sapiens, MDA-MB-435, 72 h) [µM]
N.N.[Cl][Pt][Cl] [Cisplatin] | 8.25 | 16.5 | 8.25 | 24.8 | 6.6 | 16.5 | 8.25 | 2.64 | – | – | – | – | – | – | – | – | – | – | –
Nc1ccn([C@@H]2O[C@H](CO)[C@@H](O)C2(F)F)c(=O)n1 [Gemcitabine] | 0.004 | 0.4 | 0.75 | 2 | 0.55 | 0.9 | 1 | 0.04 | – | – | – | – | – | – | – | – | – | – | –
Kahalalide F | – | – | – | – | – | – | – | – | micromolar activity | micromolar activity | micromolar activity | – | – | – | – | – | – | – | –
CC(=O)O[C@H]1C(=O)[C@@]2(C)[C@H]([C@H](OC(=O)c3ccccc3)[C@]3(O)C[C@H](OC(=O)[C@H](O)[C@@H](NC(=O)c4ccccc4)c4ccccc4)C(C)=C1C3(C)C)[C@]1(OC(C)=O)CO[C@@H]1C[C@@H]2O [Paclitaxel] | – | – | – | – | – | – | – | – | – | – | – | 0.007 | 0.03 | 0.04 | 0.04 | 0.01 | 0.0075 | 0.025 | 0.025
C/C=C1\NC(=O)[C@H](Cc2ccccc2)NC(=O)[C@@H](C(C)C)NC(=O)[C@@H]([C@@H](C)CC)NC(=O)[C@H](NC(=O)[C@H](NC(=O)[C@H](CCCN)NC(=O)[C@H]2CCCN2C(=O)[C@H](NC(=O)[C@@H](NC(=O)[C@@H](NC(=O)[C@H](NC(=O)CC[C@@H](C)CC)C(C)C)[C@@H](C)O)C(C)C)C(C)C)[C@@H](C)CC)[C@@H](C)OC(=O)[C@H](C(C)C)NC1=O [PM02734, (4S)-MeHex-D-Val-L-Thr-L-Val-D-Val-D-Pro-L-Orn-D-allo-Ile-cyclo(D-allo-Thr-D-allo-Ile-D-Val-L-Phe-Z-Dhb-L-Val)] | 0.2 | 0.3 | 4 | 0.35 | 0.55 | 0.6 | 6.5 | 0.5 | – | – | – | – | – | – | – | – | – | – | –
